Data on 13 compounds can be found in patent publication US10919896B2, “Preparation and uses of pyrimidinone derivatives” (Cancer Research Technology Limited, priority 2016, dated 2021).

One test has as its target Cdc7/Dbf4 (Homo sapiens, UniProt O00311). Description: Cdc7 Biochemical Assay Method 3: Cdc7/Dbf4 Enzyme TR-FRET Assay measuring pS40MCM2. Particulars: 1 μM ATP, read-out: Biochemical Method 3 (pIC50) (converted). The method, boiled down: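 2.5 nM Cdc7/Dbf4 incubated with 100 nM biotinylated MCM2-derived peptide and 1 μM ATP, 120 minutes at 25° C. Phospho-S40 detected by TR-FRET using anti-pS40 Mcm2 antibody, terbium anti-rabbit secondary and streptavidin-Alexa Fluor488.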

The target of test [1] is T1, Cdc7/ASK (Homo sapiens, UniProt O00311). Description: Cdc7 Biochemical Assay Method 1: 384 well ELISA, whole protein substrate MCM2, antibody against Phospho MCM2 (S53). Also on record: purchased. Particulars: 2 μM ATP, read-out: Biochemical Method 1 (pIC50) (converted). The method, boiled down:
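MCM2 protein substrate was coated on nickel-chelate plates, then Cdc7/ASK was added with 2 μM ATP in 50 mM Tris-HCl pH 8.5, 10 mM MgCl2, 1 mM DTT, 4% DMSO, 90 min at room temperature. Phospho-MCM2 (S53) was detected by ELISA with an AP secondary and PNPP absorbance. IC50 was derived from % inhibition versus no-compound and no-enzyme controls.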
Background: In an ELISA, binding on a coated surface is turned into a signal by an enzyme label.

The target in test [2] is T1, Cdc7/ASK. The test can be described thus: Cdc7 Biochemical Assay Method 2: 384 well mobility shift assay (EZ Reader II), MCM2 peptide substrate. The arrangement: purchased. To be noted: 12.5 μM ATP, read-out: Biochemical Method 2 (pIC50) (converted). Here is the method: This protocol describes a method for assaying Cdc7/ASK for activity. The assay is a 384 well mobility shift assay (MSA) run on the EZ Reader II microfluidics plate reader (Caliper LifeSciences), utilising a peptide substrate based on the MCM2 sequence. The assay technology is based on the change in mobility between the peptide substrate and the phosphorylated product. A 10 nL volume of the reaction mixture is sipped onto the microfluidic chip where the substrate and product are separated by electrophoresis and detected via laser-induced fluorescence (488 nm LED). The reaction can be monitored in real-time for kinetic experiments or as an end-point for IC50 determinations. The % conversion of substrate is calculated from peak heights of product (P) and substrate (S) peptides (% conversion=P/(P+S)*100).
• 10× Assay Buffer: 200 mM HEPES pH 8, 100 mM MgCl2, 0.1% v/v Triton X-100 and 15 mM DTT. Prepare fresh buffer from 1 M HEPES pH 8, 1 M MgCl2, 1 M DTT and 10% Triton x-100 stocks for each experiment. • Cdc7/ASK is purchased from commercial suppliers and used in the assay at a final assay concentration of 0.847 ng/μL or 9.2 nM. • MCM2 peptide is purchased from commercial suppliers and used in the assay at a final assay concentration of 2.5 μM. • ATP used in the assay at a final assay concentration of 12.5 μM. Methods • 1. Prepare intermediate (daughter) compound plate by transferring 2 μL of compound from the mother plate to 18 μL of 33.3% DMSO in a clear polypropylene plate. • 2. Dry-spot 1 μL of compound from the intermediate compound plate to empty assay plate. • 3. Add 5 μL of 1.694 ng/μL CDC7/ASK working solution to ‘test’ and ‘control’ wells or […] of 2× Assay Buffer to ‘blank’ wells. • 4. Add 4 μL 2.5 μM peptide/12.5 μM ATP working solution to all wells. • 5. Incubate at 37° C. for 1 hour then remove from the incubator and leave for a further 1 hour at room temperature. • 6. Place plate into an EZReader II to read.
Percentage inhibition values were calculated from % of substrate conversion values, using the no compound (DMSO) and no enzyme control values as 0% and 100% inhibition, respectively. IC50 determination was performed with ExcelFit software (IDBS) using curve fit 205. Z′ factors were determined for each plate tested and were all above 0.5.

Test [3] relates to Cdc7 (pS40MCM2 levels in HCT116 cells). The test can be described thus: Cdc7 Cell Pharmacodynamics Assay Method 2A: pS40MCM2 levels in HCT116 cells, 6 hours. It is filed as cell-based. Particulars: Homo sapiens, HCT-116, read-out: Biomarker Method 2A (pEC50) (converted). An excerpt:
(§1) This protocol describes a method to investigate the inhibition of Cdc7 activity by measuring pS40MCM2 levels in cells, after treatment with compounds.
(§2) • HCT116 cells (ATCC, #CCL-247) • McCoys 5A with L-glutamine (Cellgro, #10-050-CV) • 10% FCS (Cellgro, #35-010-CV) • D-PBS without CaCl2 and MgCl2 (Cellgro, #21-031-CV) • Trypsin/EDTA (Cellgro, #25-052-CL) • BSA (Calbiochem, 126593) • Cell Extraction Buffer (Invitrogen FNN0011) • Protease inhibitor cocktail (Sigma P-2714) • PMSF 0.3M stock in DMSO (Sigma P7626) • Antibody-rabbit pMCM2 Ser40 (Abcam, AB133243) • Antibody-goat MCM2 (Bethyl #A300-122A) • Antibody-goat Anti Rabbit IgG HRP (Thermo, 31462) • SuperSignal ELISA Pico Chemiluminescent Substrate (Perbio Science UK Ltd 37069) • 10×PBS (Growcells, MRGF-6236) • Triton X100 (Sigma, P-T8787) • DMSO (Fisher, D128-1) • 2-Propanol (J. T. Baker, 9095-03) Method • Seed 1×10^6 HCT116 cells into each of two 175 cm^2 flask containing 30 mL Cell Growth Media and incubate at 37° C., 5% CO2 for 3 days. • Harvest the cells from one T175 cm^2 flask and count. • Dilute with Cell Growth Media to a cell density of 2×10^5. Dispense 100 μL to each well (20,000 HCT116 cells/well) of TC treated 96-well plate(s). • Allow cells to settle overnight in incubator set at 37° C. and 5% CO2. • Cell treatment: Transfer 0.25 μL/well from the compound plate to the wells of the cell plate(s). This is a 1:400 dilution of compound in the assay. • Once all cells are treated place the cells back to the incubator and incubate for either 6 hours (Method 2A) or 18 hours (Method 2B). • Dilute the capture antibody (total MCM2#A300-122A) 1 in 250 in the required volume of PBS (5 mL per assay plate, plus 5 mL for dead volume) and add 50 μL to each well of a Hybond plate except wells A12 & B12. Seal the plate and incubate at room temperature for a minimum of 2 hours. • Defrost aliquot of Invitrogen Cell Extraction Buffer (FNN0011) on ice and supplement with appropriate volume of both Sigma protease inhibitor cocktail (P-2714) and PMSF (final conc 1 mM from a 1 M stock in DMSO). • After the 6 hour or 18 hour cell treatment time, tap out the media from the assay plates and place them in the −70° C. freezer for at least 5 minutes. • Flick out the remaining liquid in the previously prepared capture Ab plate(s) and add 200 μL 2% BSA per well. Incubate for 1 hour at room temperature. • Remove plates from freezer and add 20 μL of ice cold complete lysis buffer. Incubate cells for 30 minutes at 4° C. • Add 30 μL per well 2% BSA • At the end of the 1 hour incubation, wash the Capture/ELISA plate(s) with Wash Buffer on the BioTek plate washer. • Transfer 40 μL per well of the lysis plate(s) to the same wells in the Capture/ELISA plate. Incubate cells overnight at 4° C. • At the end of the overnight incubation, wash the ELISA plate(s) with Wash Buffer on BioTek plate washer. • Prepare Detection Antibody Buffer and dispense 50 μL to all wells of ELISA plate(s) except wells G1 & H1. Cover plate and incubate at room temperature for 2 hours with gentle shaking. • At the end of the 2 hour incubation, wash the ELISA plate(s) with Wash Buffer on the BioTek plate washer. • Prepare the Conjugated Antibody Buffer and dispense 50 μL to all wells of ELISA plate(s). • Cover the plate and incubate at room temperature for 1 hour with gentle shaking. • At the end of the 1 hour incubation, wash the ELISA plate(s) with Wash Buffer on the BioTek plate washer. • Prepare Substrate Buffer and dispense 50 μL to all wells of ELISA plate(s). • Incubate for a minimum of 10 minutes and read plates on the EnVision 2100 Multilabel Reader (Mirror: Luminescence (404) & Luminescence 700 (212); Measurement Height: 6.5 mm; Measurement Time: 0.2 s). Method 3

Test [4] shares this test system. Description: Cdc7 Cell Pharmacodynamics Assay Method 2B: pS40MCM2 levels in HCT116 cells, 18 hours. Type of test: cell-based. To be noted: Homo sapiens, HCT-116, read-out: Biomarker Method 2B (pEC50) (converted).
Source text: as §1, §2

SMILES strings stand for the structures.

T1 sequence (O00311 whole entry): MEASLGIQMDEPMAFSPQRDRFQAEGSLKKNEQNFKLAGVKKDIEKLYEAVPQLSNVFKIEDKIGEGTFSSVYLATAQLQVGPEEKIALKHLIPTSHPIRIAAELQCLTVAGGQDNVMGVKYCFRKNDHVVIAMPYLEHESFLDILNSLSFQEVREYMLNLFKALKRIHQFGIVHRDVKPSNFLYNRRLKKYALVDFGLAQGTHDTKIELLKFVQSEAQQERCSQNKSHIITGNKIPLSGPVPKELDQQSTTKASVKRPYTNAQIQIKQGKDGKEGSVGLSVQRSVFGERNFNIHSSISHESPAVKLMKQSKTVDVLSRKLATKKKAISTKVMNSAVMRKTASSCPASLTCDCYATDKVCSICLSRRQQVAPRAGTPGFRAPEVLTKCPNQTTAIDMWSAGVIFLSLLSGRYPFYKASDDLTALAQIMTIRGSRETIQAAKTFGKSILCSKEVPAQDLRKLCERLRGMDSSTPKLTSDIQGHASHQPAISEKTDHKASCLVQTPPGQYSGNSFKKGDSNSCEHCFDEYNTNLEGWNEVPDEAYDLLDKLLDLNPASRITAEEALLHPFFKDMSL
T1 sequence (Q9UBU7 whole entry partner): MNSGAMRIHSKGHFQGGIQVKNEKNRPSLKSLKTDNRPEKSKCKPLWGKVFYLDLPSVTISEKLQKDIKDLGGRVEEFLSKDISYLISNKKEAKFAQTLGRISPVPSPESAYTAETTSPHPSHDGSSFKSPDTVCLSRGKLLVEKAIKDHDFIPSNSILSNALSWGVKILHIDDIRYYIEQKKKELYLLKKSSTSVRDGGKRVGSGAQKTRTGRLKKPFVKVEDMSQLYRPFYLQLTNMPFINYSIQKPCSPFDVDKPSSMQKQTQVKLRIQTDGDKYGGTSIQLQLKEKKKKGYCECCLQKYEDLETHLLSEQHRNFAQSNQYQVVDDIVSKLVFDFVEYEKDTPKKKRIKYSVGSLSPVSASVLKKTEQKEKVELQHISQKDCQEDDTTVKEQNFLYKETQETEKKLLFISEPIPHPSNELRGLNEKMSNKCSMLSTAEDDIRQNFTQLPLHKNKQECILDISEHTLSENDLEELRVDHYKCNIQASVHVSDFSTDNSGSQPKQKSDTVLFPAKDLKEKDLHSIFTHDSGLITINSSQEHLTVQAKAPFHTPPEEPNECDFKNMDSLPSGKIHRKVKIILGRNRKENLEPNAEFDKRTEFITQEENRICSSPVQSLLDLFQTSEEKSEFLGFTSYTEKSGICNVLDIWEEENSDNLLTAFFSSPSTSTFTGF
Chain of Cdc7/Dbf4 (O00311 whole entry): as the sequence (O00311 whole entry) above
Chain of Cdc7/Dbf4 (Q9UBU7 whole entry partner): as the sequence (Q9UBU7 whole entry partner) above

With `CC(C)C[C@H]1CN2CCC[C@H]2CN1c1nc(-c2ccncc2)[nH]c(=O)c1Cl` [Compound 184], the IC50 was 102 nM on Cdc7/Dbf4, 437 nM on Cdc7/ASK [1] and 170 nM at Cdc7/ASK [2].
As to `O=c1[nH]c(-c2ccnc(F)c2)nc(N2CCC3CCNCC32)c1Cl` (centres unmarked) [Compound 221], at Cdc7/Dbf4, the IC50 was 2.88 nM. The figures for the EC50 in test [3] and in test [4] were 1620 nM and 562 nM, respectively.
Consider `O=c1[nH]c(-c2ccnc(F)c2)nc(N2CCC3NCCCC32)c1Cl` (centres unmarked) [Compound 223], for which the IC50 on Cdc7/Dbf4 is 2.88 nM. The figures for the EC50 in test [3] and in test [4] were 56.2 nM and 47.9 nM, respectively.
The like results for `CC(=O)NC1CCN(c2nc(-c3ccnc(F)c3)[nH]c(=O)c2Cl)CC1` [Compound 232] were, in that order, 1.02 nM, 2000 nM and 977 nM.
Consider `CC(F)(F)[C@H]1CN(c2nc(-c3ccncc3)[nH]c(=O)c2Cl)CCN1` [Compound 307], for which the IC50 at Cdc7/ASK [1] is 3.63 nM; at Cdc7/ASK [2] it was 2.29 nM.
Take `NC[C@@H]1CCN(c2nc(-c3ccnc(F)c3)[nH]c(=O)c2Cl)C1` [Compound 318]: the IC50 at Cdc7/ASK [2] was 14.1 nM.
`C[C@H]1COCCN1c1nc(-c2ccnc(F)c2)[nH]c(=O)c1Cl` [Compound 333]: at Cdc7/Dbf4, the IC50 is 1.23 nM. Also, the figures for the EC50 in test [3] and in test [4] were 347 nM and 87.1 nM, respectively.
Turning to `O=c1[nH]c(-c2ccnc(F)c2)nc(N2C3CCCC2COC3)c1Cl` [Compound 334], the IC50 on Cdc7/Dbf4 was 0.724 nM. Further, the EC50 in test [3] was 135 nM; in test [4] it was 61.7 nM.
`CCCC1COCCN1c1nc(-c2ccncc2)[nH]c(=O)c1Cl` (centres unmarked) [Compound 366]: on Cdc7/ASK [2], the IC50 was 60.3 nM.
The same measure, in the same setting: the value for `CC(C)CC1COCCN1c1nc(-c2ccncc2)[nH]c(=O)c1Cl` (centres unmarked) [Compound 367] was 295 nM; that for `O=c1[nH]c(-c2ccncc2)nc(N2CCNCC2c2ccccc2)c1Cl` (centres unmarked) [Compound 372] was 263 nM.
The same measure, in the same setting: as for `CC(C)[C@H]1CN(c2nc(-c3ccncc3)[nH]c(=O)c2C#N)CCN1` [Compound 409, 4-[(3S)-3-isopropylpiperazin-1-yl]-6-oxo-2-(4-pyridyl)-1H-pyrimidine-5-carbonitrile], the figure is 11.5 nM.
With `CC(C)(C)[C@H]1CN(c2nc(-c3ccncc3)[nH]c(=O)c2C#N)CCN1` [Compound 411, 4-[(3S)-3-tert-butylpiperazin-1-yl]-6-oxo-2-(4-pyridyl)-1H-pyrimidine-5-carbonitrile], at Cdc7/ASK [2], the IC50 was 10.5 nM.
